One data set concerns HIV. Briefly: in vitro anti-HIV assay: inhibition of HIV-induced cytopathic effect in MT-4 cells (MTT). Type of data set: cell-based. As to conditions: for pSI: pSI = pCC50-pIC50 (selectivity index CC50/IC50); for IC50: Human immunodeficiency virus 1, MT4, −log IC50.
Data set [1] is described as follows: cytotoxicity (CC50) in mock-infected MT-4 cells (MTT). Type of data set: cell-based. As to conditions: human, mock-infected MT-4 cells, −log CC50, MTT.
Method: (§1) A rapid, sensitive and automated assay procedure was used for the in vitro evaluation of anti-HIV agents. […] Inhibition of the HIV-induced cytopathic effect was used as the end point. The viability of both HIV- and mock-infected cells was assessed spectrophotometrically via the in situ reduction of 3-(4,5-dimethylthiazol-2-yl)-2,5-diphenyltetrazolium bromide (MTT). The 50% cytotoxic concentration (CC50 in M) was defined as the concentration of compound that reduced the absorbance of the mock-infected control sample by 50%. The percent protection achieved by the compound in HIV-infected cells was calculated by the following formula:
(§2) [formula] whereby (ODT)HIV is the optical density measured with a given concentration of the test compound in HIV-infected cells; (ODC)HIV is the optical density measured for the control untreated HIV-infected cells; (ODC)MOCK is the optical density measured for the control untreated mock-infected cells; all optical density values were determined at 540 nm. The dose achieving 50% protection according to the above formula was defined as the 50% inhibitory concentration (IC50 in M). The ratio of CC50 to IC50 was defined as the selectivity index (SI).
A further data set concerns mock-infected MT-4 cells. Described as above. Type of data set: cell-based.
Data set [2] in a line: effect of surfactant on solubility and stability of the supersaturated condition (0.01 N HCl, 37° C.). In kind it is physicochemical. As to the method:
Aqueous solutions of 2.5% (w/v) of hydroxypropyl-β-cyclodextrin (HPβCD), 2.5% (w/v) of Vit E TPGS [2], 2.5% (w/v) Cremophor RH 40 [3], 2.5% (w/v) of sodium lauryl sulfate or 2.5% (w/v) of PEG 4000 [5] in 0.01 N HCl at 37° C. were prepared.
To 10 ml of these solutions, with stirring, a concentrated solution of R278474 or R165335 in N,N-dimethylformamide (100 mg/ml) was added dropwise until precipitation of the drug compound was observed. After 5, 30, 60 and 120 minutes, the concentration of dissolved R278474 or R165335 expressed in mg % (i.e. the number of mg dissolved in 100 ml) was determined.

Where [3] appears, read: 50% protection against HIV-induced cytopathic effect in MT-4 cells, MTT.
Where [4] appears, read: [1] 2.5% (w/v) HPβCD in 0.01 N HCl, 5 minutes.
The mark [5] stands for this setting: [1] 2.5% (w/v) HPβCD in 0.01 N HCl, 30 minutes.
The mark [6] stands for this setting: [1] 2.5% (w/v) HPβCD in 0.01 N HCl, 60 minutes.
Setting [7] is: [1] 2.5% (w/v) HPβCD in 0.01 N HCl, 120 minutes.
Where [8] appears, read: [5] 2.5% (w/v) PEG 4000 in 0.01 N HCl, 5 minutes.
[9] abbreviates: [5] 2.5% (w/v) PEG 4000 in 0.01 N HCl, 30 minutes.
Setting [10] is: [5] 2.5% (w/v) PEG 4000 in 0.01 N HCl, 60 minutes.
Setting [11] is: [5] 2.5% (w/v) PEG 4000 in 0.01 N HCl, 120 minutes.

Structures are written as SMILES.

From patent US9192577B2, “Pharmaceutical compositions comprising a basic drug compound, a surfactant, and a physiologically tolerable water soluble acid” (Janssen Pharmaceutica NV, priority 2002, dated 2015) come the findings set out here.

Method for HIV: as §1, §2

`Cc1cc(/C=C\Cl)cc(C)c1Nc1ccnc(Nc2ccc(C#N)cc2)n1` registered a melting point of 250 °C.

`Cc1cc(C=C(Br)Br)cc(C)c1Nc1ccnc(Nc2ccc(C#N)cc2)n1` came in with a melting point of 223 °C.

The molecule `CCCCN(C)C(=O)/C=C/c1cc(C)c(Oc2ccnc(Nc3ccc(C#N)cc3)n2)c(C)c1` gave a melting point of 212 °C.

With `Cc1ccc(N(C)C)c(C)c1Nc1ccnc(Nc2ccc(C#N)cc2)n1`, the melting point was 132 °C.

Regarding `Cc1cc(/C=C/c2cccnc2)cc(C)c1Nc1ccnc(Nc2ccc(C#N)cc2)n1`, the melting point was 120 °C.

Regarding `Cc1cc(C(=O)CC#N)cc(C)c1Nc1ccnc(Nc2ccc(C#N)cc2)n1`, the melting point was determined as 150 °C.

In the case of `Cc1cc(-c2ccco2)cc(C)c1Nc1ccnc(Nc2ccc(C#N)cc2)n1` [Compound 3], in the data set with HIV, the pSI is on record as −2.9. In data set [1], this molecule gave a CC50 of 3.16 µM.

As for `CO/N=C(\c1cc(C)c(Nc2ccnc(Nc3ccc(C#N)cc3)n2)c(C)c1)C(C)C` [Compound 9], in the data set with HIV, the pSI is on record as −4. Further, the CC50 in data set [1] is 15.8 µM.

`C/C(C#N)=C/c1cc(C)c(Nc2ccnc(Nc3ccc(C#N)cc3)n2)c(C)c1` [Compound 11] gave an IC50 with HIV (setting [3]) of 0.000631 µM. In the data set with HIV, the pSI is on record as −3.5. In data set [1], the CC50 is 2 µM.

`Cc1cc(C(O)CC#N)cc(C)c1Nc1ccnc(Nc2ccc(C#N)cc2)n1` (centres unmarked) [Compound 18]: the pSI with HIV is listed as −4.0. Further, in data set [1], the CC50 is 12.6 µM.

Regarding `Cc1cc(-c2ccsc2)cc(C)c1Nc1ccnc(Nc2ccc(C#N)cc2)n1` [Compound 21], the pSI in the data set on HIV is on record as −3.5. For the same molecule, in data set [1], the midpoint of cytotoxicity, the CC50, lay at 12.6 µM.

`Cc1cc(CCC#N)cc(C)c1Nc1ccnc(Nc2ccc(C#N)cc2)n1` [Compound 24]: the pSI in the data set with HIV is −3.4. Moreover, in data set [1], the CC50 was 2 µM.

With `CC(=O)c1cccc(-c2cc(C)c(Nc3ccnc(Nc4ccc(C#N)cc4)n3)c(C)c2)c1` [Compound 34], the pSI with HIV is on record as −3.2. This molecule showed a CC50 in data set [1] of 15.8 µM.

On to `Cc1cc(/C=C(\C#N)c2cccs2)cc(C)c1Nc1ccnc(Nc2ccc(C#N)cc2)n1` [Compound 49], for which, in the data set on HIV, the pSI is given as −3.2. The same molecule gave a CC50 in data set [1] of 15.8 µM.

For `Cc1cc(Cn2ccnc2)cc(C)c1Nc1ccnc(Nc2ccc(C#N)cc2)n1` [Compound 70], in the data set on HIV, the pSI is on record as −3.3. This molecule had a CC50 in data set [1] of 15.8 µM.

As for `Cc1cc(CN2CCSC2)cc(C)c1Nc1ccnc(Nc2ccc(C#N)cc2)n1` [Compound 78], the pSI with HIV is reported as −3.5. It took 12.6 µM to reach half-maximal cytotoxicity in data set [1] (CC50).

As to `CCN(Cc1ccncc1)Cc1cc(C)c(Nc2ccnc(Nc3ccc(C#N)cc3)n2)c(C)c1` [Compound 79], the pSI with HIV is given as −2.7. In data set [1], the midpoint of cytotoxicity, the CC50, lay at 5.01 µM.

In turn, `CCOCc1ccc(Oc2ccnc(Nc3ccc(C#N)cc3)n2)c(C)c1` [Compound 105] yielded a melting point of 140 °C. Moreover, the pSI in the data set on HIV is <−3.2. Further, in data set [1], the 50% cytotoxic concentration (CC50) is > 100 µM.

In turn, `Cc1cc(/C=C(/C#N)C(=O)C(C)(C)C)cc(C)c1Nc1ccnc(Nc2ccc(C#N)cc2)n1` [Compound 106] displayed a melting point of 193 °C. Besides, the pSI with HIV is recorded as −2.5. The molecule also had a CC50 in data set [1] of 6.31 µM.

Molecule `Cc1cc(/C=C(/F)C#N)cc(C)c1Nc1ccnc(Nc2ccc(C#N)cc2)n1` [Compound 110] registered a melting point of 254 °C. Also, the IC50 in the data set with HIV (setting [3]) was 0.00251 µM. Besides, the pSI in the data set on HIV is −4.3.

Turning to `Cc1cc(/C=C/C(=O)N(C)C)cc(C)c1Nc1ccnc(Nc2ccc(C#N)cc2)n1` [Compound 112], the melting point is > 264 °C. For the same molecule, the pSI with HIV was −4.2. For the same molecule, the CC50 in data set [1] is 12.6 µM.

The molecule `Cc1cc(/C=C/C(=O)N(C)CCC#N)cc(C)c1Nc1ccnc(Nc2ccc(C#N)cc2)n1` [Compound 114] gave a melting point of 168 °C. The pSI in the data set on HIV is listed as −3.5. Besides, it took 7.94 µM to reach half-maximal cytotoxicity in data set [1] (CC50).

`Cc1cc(-n2cccc2)cc(C)c1Oc1ccnc(Nc2ccc(C#N)cc2)n1` [Compound 118]: the pSI in the data set on HIV is <−4.1. Besides, the midpoint of cytotoxicity in data set [1], the CC50, lay at 79.4 µM.

Regarding `Cc1cc(/C(Cl)=C\C#N)cc(C)c1Nc1ccnc(Nc2ccc(C#N)cc2)n1` [Compound 124], the pSI in the data set with HIV was −3.8. In data set [1], this molecule gave a CC50 of 20 µM.

`Cc1cc(/C=C/c2cccnc2)cc(C)c1Nc1ccnc(Nc2ccc(C#N)cc2)n1` [Compound 145]: the pSI in the data set with HIV is −3.4. This molecule also had a CC50 in data set [1] of 5.01 µM.

For the molecule `Cc1cc(/C=C/C(=O)N2CCN(C)CC2)cc(C)c1Nc1ccnc(Nc2ccc(C#N)cc2)n1` [Compound 155], in the data set with HIV, the pSI is listed as −2.5. The CC50 in data set [1] is 0.501 µM.

For `Cc1cc(/C=C/C(=O)N2CCOCC2)cc(C)c1Nc1ccnc(Nc2ccc(C#N)cc2)n1` [Compound 156], in the data set with HIV, the pSI is listed as −2.6. The molecule further had a CC50 in data set [1] of 7.94 µM.

As to `Cc1cc(/C=C/C(=O)N2CC=CC2)cc(C)c1Oc1ccnc(Nc2ccc(C#N)cc2)n1` [Compound 209], the pSI in the data set on HIV is recorded as −3.7. This molecule also gave a half-maximal cytotoxic concentration (CC50) in data set [1] of 12.6 µM.

As to `Cc1cc(/C=C/C(=O)N(C)C2CCN(C)CC2)cc(C)c1Oc1ccnc(Nc2ccc(C#N)cc2)n1` [Compound 210], the pSI in the data set with HIV is listed as −3.5. In data set [1], the CC50 was 15.8 µM.

For the molecule `Cc1cc(/C=C/C(=O)N2CCOCC2)cc(C)c1Oc1ccnc(Nc2ccc(C#N)cc2)n1` [Compound 216], the pSI in the data set on HIV was −3.6. The CC50 in data set [1] is 10 µM.

As to `COc1cc(CCC#N)ccc1Nc1ccnc(Nc2ccc(C#N)cc2)n1` [Compound 251], the pSI in the data set with HIV is given as −3.9. The “pIC50 (M)” value in the data set with HIV (−log IC50, 50% protection against HIV-induced cytopathic effect in MT-4 cells, MTT) is 8.9 M. Also, the “pCC50 (M)” value in the data set on mock-infected MT-4 cells came out at 5 M.

Take `Cc1cc(C#N)cc(C)c1Oc1nc(Nc2ccc(C#N)cc2)nc(N)c1Br` [Compound R165335, 4-[[6-amino-5-bromo-2-[(4-cyanophenyl)amino]-4-pyrimidinyl]oxy]-3,5-dimethylbenzonitrile]: the “concentration of dissolved drug” value in data set [2] (setting [4]) stood at 0.04 mg %; in data set [2] (setting [5]), 0.12 mg %; in data set [2] (setting [6]), 0.17 mg %; in data set [2] (setting [7]), 0.07 mg %; in data set [2] ([3] 2.5% (w/v) Cremophor RH 40 in 0.01 N HCl, 5 minutes), 54.20 mg %; in data set [2] ([3] 2.5% (w/v) Cremophor RH 40 in 0.01 N HCl, 30 minutes), 24.88 mg %. Further, the “concentration of dissolved drug” value in data set [2] ([3] 2.5% (w/v) Cremophor RH 40 in 0.01 N HCl, 60 minutes) came to 20.06 mg %; in data set [2] ([3] 2.5% (w/v) Cremophor RH 40 in 0.01 N HCl, 120 minutes), 18.44 mg %; in data set [2] ([4] 2.5% (w/v) sodium lauryl sulfate in 0.01 N HCl, 5 minutes), 35.09 mg %; in data set [2] ([4] 2.5% (w/v) sodium lauryl sulfate in 0.01 N HCl, 30 minutes), 37.85 mg %; in data set [2] ([4] 2.5% (w/v) sodium lauryl sulfate in 0.01 N HCl, 60 minutes), 38.80 mg %; in data set [2] ([4] 2.5% (w/v) sodium lauryl sulfate in 0.01 N HCl, 120 minutes) it was 38.35 mg %. The “concentration of dissolved drug” value is 0.02 mg % in data set [2] (setting [8]), 0.04 mg % in data set [2] (setting [9]), 0.07 mg % in data set [2] (setting [10]) and 0.04 mg % in data set [2] (setting [11]).

As to `Cc1cc(C=CC#N)cc(C)c1Nc1ccnc(Nc2ccc(C#N)cc2)n1` [Compound R278474, 4-[[4-[[4-(2-cyanoethenyl)-2,6-dimethylphenyl]amino]-2-pyrimidinyl]amino]benzonitrile], the “concentration of dissolved drug” value was 18.02 mg % in data set [2] (0.01N HCl, 5 minutes); 16.30 mg % in data set [2] (0.01N HCl, 30 minutes); 15.90 mg % in data set [2] (0.01N HCl, 60 minutes); 15.95 mg % in data set [2] (0.01N HCl, 120 minutes); 27.68 mg % in data set [2] (setting [4]); 24.80 mg % in data set [2] (setting [5]). In addition, the “concentration of dissolved drug” value in data set [2] (setting [6]) was 24.40 mg %; in data set [2] (setting [7]), 24.10 mg %; in data set [2] ([2] 2.5% (w/v) Vit E TPGS in 0.01 N HCl, 5 minutes), 91.75 mg %; in data set [2] ([2] 2.5% (w/v) Vit E TPGS in 0.01 N HCl, 30 minutes), 83.50 mg %; in data set [2] ([2] 2.5% (w/v) Vit E TPGS in 0.01 N HCl, 60 minutes), 76.25 mg %; in data set [2] ([2] 2.5% (w/v) Vit E TPGS in 0.01 N HCl, 120 minutes) it was 75.25 mg %. The “concentration of dissolved drug” value was found to be 23.60 mg % in data set [2] (setting [8]), 21.60 mg % in data set [2] (setting [9]), 20.60 mg % in data set [2] (setting [10]) and 20.10 mg % in data set [2] (setting [11]).
